Reference: patent US7538193B2, “NO-modified hemoglobins and uses therefor” (Duke University, priority 1995, dated 2009)

What was measured:
Sprague-Dawley rat = assay: Mean arterial blood pressure in anesthetized rats after femoral vein bolus (Examples 5, 6); format: in vivo; conditions: for blood pressure response: bolus into femoral vein, 2-200 nmol/kg
Text: Rats were anesthetized by intraperitoneal injection of pentobarbital and the femoral arteries and veins accessed by local cut down. The artery was then cannulated and the blood pressure monitored continuously using a Viggo Spectramed pressure transducer attached to a Gould recorder. An IBM PC (DATA Q Codas) was used for data acquisition.

rabbit aortic ring = assay: Vessel ring bioassay of SNO-Hb preparations (Examples 4, 13); format: cell-based; conditions: for effect of added glutathione on the dose-response: glutathione 100 ∥M in bioassay chambers (FIG. 4B); for vasoactivity in vascular ring bioassay: no added thiol (FIG. 4A)
Experimental: Details of the vessel ring bioassay have been published (Stamler, J. S., et al., Proc. Natl. Acad. Sci. USA 89:444-448 (1992)). SNO-Hb(FeII)O2 preparations were synthesized with 10-fold excess S-nitrosocysteine (CYSNO) over Hb(FeII)O2 protein (2% borate, 0.5 mM EDTA, ˜15 min incubation), after which desalting was performed across Sephadex G-25 columns. CYSNO was synthesized in 0.5 N HCl, 0.5 mM EDTA and then neutralized (1:1) in 1 M phosphate buffer containing 0.5 mM EDTA. […] The latter was synthesized by treatment of Hb(FeII)O2 with excess ferricyanide, followed by desalting across G-25 columns. SNO-Hb concentrations were verified spectroscopically and the S-nitrosothiol content was determined by the method of Saville (Stamler, J. S., et al., Proc. Natl. Acad. Sci USA 89:444-448 (1992)). The S—NO/tetramer stoichiometry for both SNO-Hb preparations was ˜2. Oxidation of the heme was undetectable by uv-spectrophotometric methods.
The aortic ring bioassay was performed as described in Example 4. The product of the reaction in which a ratio of 100:1 CYSNO/Hb tetramer was used, contains 2 SNOs as well as NO attached to the heme.

[1] = system: rat brain (caudatoputamen nucleus); assay: Brain blood flow in rats by H2 clearance (Example 12); format: in vivo; conditions: Example 12, FIG. 10
Experimental: SNO-Hb(FeII)O2, having a SNO/Hb ratio of 2, was prepared (from HbA0) by reaction with S-nitrosothiol. Rats breathing 21% O2 were injected (time 0) with Hbs prepared from HbA0 as indicated in FIG. 10 (open circles, SNO-Hb (100 nmol/kg); filled circles, SNO-Hb (1000 nmol/kg); filled squares, unmodified Hb (1000 nmol/kg)). Three rats were used per experiment. Blood flow was measured in brain using the H2 clearance method; microelectrodes were placed in the brain stereotactically. […] NO group release is promoted by local tissue hypoxia.

[2] = Decomposition and stability of SNO-Hb forms; format: physicochemical; conditions: as synthesized in Example 27
Experimental: Hbs in PBS (0.5 mM EDTA, pH 7.4) were incubated in air (oxy) or in a tonometer previously evacuated of O2 (deoxy). SNO-Hb(FeII)O2 decomposition was determined by the method of Saville (Saville, B., Analyst 83:670-672 (1958)). Spontaneous decomposition of SNO-Hb(FeII) was followed spectrophotometrically by formation of Hb(FeII)NO. Transnitrosation reactions with glutathione were performed by addition of 100-fold excess glutathione over protein (50 μM), immediate processing of the reaction mixture under anaerobic conditions followed by rapid TCA precipitation, and analysis of RSNO in the supernatant. Rates of NO group transfer were too rapid to measure accurately by the standard methods used in this study.

platelets = assay: ADP-induced aggregation of platelet-rich plasma; format: cell-based, human; conditions: 5 μM ADP
Experimental: Venous blood, anticoagulated with […] sodium citrate, was obtained from volunteers who had not consumed acetylsalicylic acid or any other platelet-active agent for at least 10 days. Platelet-rich plasma was prepared by centrifugation at 150×g for 10 minutes at 25° C. and was used within 2 hours of collection. Platelet counts were determined with a Coulter counter (model ZM) to be 1.5 to 3×10^8/ml.
Aliquots (0.3 ml) of platelets were incubated at 37° C. and stirred at 1000 rpm in a PAP-4 aggregometer (Biodata, Hatsboro, Pa.). Hemoglobins were preincubated with platelets for 10 min and aggregations were induced with 5 μM ADP. Aggregations were quantified by measuring the maximal rate and extent of change of light transmittance and are expressed as a normalized value relative to control aggregations performed in the absence of hemoglobin.

[3] = Endogenous SNO-Hb and Hb(FeII)NO in rat blood by photolysis-chemiluminescence; format: in vivo; conditions: 45 minutes after infusion of 50 mg/kg
Text: A highly sensitive photolysis-chemiluminescence methodology was employed, which had been used for measuring RSNOs (S-nitrosothiols) in biological systems (Gaston, B., et al., Proc. Natl. Acad. Sci. USA 90:10957-10961 (1993); Stamler, J. S., et al., Proc. Natl. Acad. Sci USA 89:7674-7677 (1992)). The method involves photolytic liberation of NO from the thiol, which is then detected in a chemiluminesence spectrometer by reaction with ozone. […]
Blood was obtained from the left ventricle (arterial) and jugular vein (venous) of anesthetized Sprague-Dawley rats. […] In 24 rats, Hb samples were divided in two aliquots which were then treated or not treated with 10-fold excess HgCl2 over protein concentration as measured by the method of Bradford. […] Under these conditions, any nitrite present was converted to S-nitrosoglutathione, which was then measured by photolysis-chemiluminescence (detection limit ˜1 nM). SNO-Hb was present in all arterial samples, and levels determined by this method (286±33 nM) were virtually identical to and not statistically different from those shown in Table 2. […]
A highly sensitive photolysis-chemiluminescence methodology was employed. […] The method involves photolytic liberation of NO from the thiol, which is then detected in a chemiluminesence spectrometer by reaction with ozone. […]

cGMP in platelets = assay: cGMP radioimmunoassay in platelet rich plasma; format: cell-based; conditions: 1, 10 and 100 μM; 5 min incubation
Experimental: Platelet rich plasma (PRP) was incubated with either hemoglobin, SNO-oxy Hb, or SNO-metHb for 5 min, after which the assay was terminated by the addition of 0.5 ml of ice cold trichloroacetic acid to 10%. Ether extractions of the supernatant were performed to remove trichloroacetic acid, and acetylation of samples with acetic anhydride was used to increase the sensitivity of the assay. Measurements of cyclic GMP were performed by radioimmunoassay (Stamler, J. et al., Circ. Res. 65:789-795 (1989)).

[4] = Transnitrosation between SNO-Hb and glutathione; format: biochemical; conditions: SNO-Hb 100 μM, glutathione 10 mM
Text: Data are presented as the amount of GSNO formed relative to the starting SNO-Hb concentration.
Thiol/SNO-Hb exchange, forming GSNO, was verified chemically (Stamler, J. S., et al., Proc. Natl. Acad. Sci. USA, 89:444-448 (1992)) following trichloroacetic acid precipitation (n=5).

In the case of “SNO-Hb(FeII)O2: S-nitroso-oxyhemoglobin made from oxyHb with excess S-nitrosocysteine”, the blood pressure response (Sprague-Dawley rat) is reported as “did not exhibit hypertensive effects”, the “effect of added glutathione on the dose-response” value (rabbit aortic ring) is reported as “potentiates the dose-response” and the “vasoactivity in vascular ring bioassay” value (rabbit aortic ring) is reported as “modest NO-like activity”. For the same compound, the “duration of effects on blood flow in rat brain” value [1] was “over 20 minutes”, the “stability of the isolated preparation” value [2] was “quite stable” and the “inhibition of platelet aggregation” value (platelets; 10 nM to 100 μM preincubated 10 min) was “some inhibition of platelet aggregation at the higher concentrations tested”.
With `CNC(=N)NCCC[C@H](N)C(=O)O` [L-NMMA, N^ω-monomethyl-L-arginine] the “increase in blood pressure” value (Sprague-Dawley rat; 50 mg/kg) was “about 20 mm Hg”, the “depletion of SNO-Hb” value [3] was 82% and the “depletion of total Hb-NO” value [3] was 50±18%.
For “SNO-Hb(FeIII): S-nitroso-methemoglobin, S-nitrosylated methemoglobin”, the “time for blood pressure to normalize after hypotensive response” value (Sprague-Dawley rat) was 10 min, the “mean arterial pressure, post” value (Sprague-Dawley rat; after 200 nmol/kg (highest dose)) was 74±6 mm Hg and the “mean arterial pressure, pre” value (Sprague-Dawley rat; before 200 nmol/kg infusion) was 108±4 mm Hg. For the same compound, the blood pressure response (Sprague-Dawley rat) was “hypotensive responses”, the “effect of added glutathione on the dose-response” value (rabbit aortic ring) was “potentiates the dose-response” and the “vasoactivity in vascular ring bioassay” value (rabbit aortic ring) was “vasodilator”. For the same compound, the “concentration of cGMP measured” value (cGMP in platelets) was “less than that of native Hb”, the “rate of NO group transfer to glutathione” value [4] was “more rapid” and the “stability of the isolated preparation” value [2] was “inherently unstable”. The “concentrations at which platelet aggregation is inhibited” value (platelets; preincubated 10 min) was ≥ 1 µM.
